From patent US20210315824A1, “PHARMACEUTICAL FORMULATIONS COMPRISING NITROCATECHOL DERIVATIVES AND METHODS OF MAKING THE SAME” (BIAL - PORTELA & CA, S.A., priority 2009, published 2021)

Assay: Bulk and tapped density of granules / API
Format: physicochemical
Conditions: API alone, prior to granulation and/or formulation
Description: It is within the ability of one of skill in the art to determine the bulk density of a compound or composition using methods generally accepted in the art. However, suitable methods include, for example, the European Pharmacopeia edition 6, Test 2.9.15 “apparent volume,” pages 285-286, EDQM, 2007, and USP 31, vol. 1, test <616> page 231-232, The United States Pharmacopeia Convention, 2008. Another example of a suitable method is described below:
Apparatus: • settling apparatus capable of producing in 1 minute 250±15 taps from a height of 3±0.2 mm. The support for the graduated cylinder with its holder, has a mass of 450±5 g • a 250 ml graduated cylinder (2 ml intervals) with a mass of 220±40 g
Method: Into a dry cylinder, introduce without compacting, 100.0 g (m g) of the test substance. […] Read the unsettled apparent volume (V0) to the nearest milliliter. Carry out 10, 500 and 1250 taps and read the corresponding volumes V10, V500, V1250, to the nearest milliliter. […]
Alternatively, if it is not possible to select 100.0 g, select a test sample of any mass but with a volume between 50 ml and 250 ml, measure its apparent volume, V0 as described above, and weigh the sample and specify the mass in the expression of results. Bulk/apparent density may then be determined in g/ml using the following formula: […]
Tapped apparent density may then be determined in g/ml using the following formula: […]

Row | Compound | bulk density
1 | Cc1c(Cl)c(C)[n+]([O-])c(Cl)c1-c1noc(-c2cc(O)c(O)c([N+](=O)[O-])c2)n1 [2,5-dichloro-3-(5-(3,4-dihydroxy-5-nitrophenyl)-1,2,4-oxadiazol-3-yl)-4,6-dimethylpyridine 1-oxide] | less than 0.1 g/ml
2 | Cc1nc(Cl)c(-c2noc(-c3cc(O)c(O)c([N+](=O)[O-])c3)n2)c(C)c1Cl [5-[3-(2,5-dichloro-4,6-dimethylpyridin-3-yl)-[1,2,4]oxadiazol-5-yl]-3-nitrobenzene-1,2-diol] | around 0.2 g/ml
